Results: PubChem BioAssay (NCI)
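Cells were grown in 96-well plates and exposed to each compound for 48 hours at five concentrations; endpoints were interpolated linearly between bracketing concentrations, or set to the highest concentration if not reached. GI50 is the concentration that inhibits growth by half. The concentration for full growth arrest is given as TGI.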

Assays:
Assay in all cases: growth of human tumour cells (NCI), 48 h
EKVX NSCLC = system: EKVX NSCLC
HT29 colon = system: HT29 colon
MCF7 breast = system: MCF7 breast
NCI-H23 lung = system: NCI-H23 lung
OVCAR-4 ovarian = system: OVCAR-4 ovarian
RPMI-8226 leukemia = system: RPMI-8226 leukemia
RXF 393 renal = system: RXF 393 renal
SK-MEL-2 melanoma = system: SK-MEL-2 melanoma
SK-MEL-5 melanoma = system: SK-MEL-5 melanoma
UO-31 renal = system: UO-31 renal

Structure (SMILES) | GI50 (EKVX NSCLC) [µM] | TGI (EKVX NSCLC) [µM] | GI50 (HT29 colon) [nM] | TGI (HT29 colon) [µM] | GI50 (MCF7 breast) [nM] | TGI (MCF7 breast) [µM] | GI50 (NCI-H23 lung) [µM] | TGI (NCI-H23 lung) [µM] | GI50 (OVCAR-4 ovarian) [µM] | TGI (OVCAR-4 ovarian) [µM] | GI50 (RPMI-8226 leukemia) [nM] | TGI (RPMI-8226 leukemia) [µM] | GI50 (RXF 393 renal) [nM] | TGI (RXF 393 renal) [µM] | GI50 (SK-MEL-2 melanoma) [µM] | TGI (SK-MEL-2 melanoma) [µM] | GI50 (SK-MEL-5 melanoma) [nM] | TGI (SK-MEL-5 melanoma) [µM] | GI50 (UO-31 renal) [µM] | TGI (UO-31 renal) [µM]
CCOC(=O)Nc1ccc2nc(Sc3ccc(Cl)cc3)sc2c1 | 8.28 | > 82.6 | 518 | 13.3 | 1660 | > 58.7 | 10.2 | > 100 | 20.7 | > 100 | 3510 | 54.8 | 2990 | 18.8 | 2.56 | 26.4 | 1180 | 5.07 | 9.57 | 79.4
CC(=O)O[C@H]1Cc2c([nH]c3ccccc23)[C@@H](c2ccc(Cl)cc2)N1C(=O)CCNC(C)(C)C | 3.74 | 7.9 | 1590 | 5.57 | 3250 | 7.74 | 5.12 | 10.5 | 3.06 | 7.14 | 2830 | 13.6 | 2520 | 6.83 | 4.93 | 9.88 | 1280 | 4.61 | 1.45 | 6.08
COc1ccc(OC)c(/C=C/C(=O)c2ccc(SC)cc2)c1 | 16.8 | 39.4 | 3890 | > 100 | 3980 | 12.8 | 2.77 | 7.6 | 61.1 | > 100 | 1660 | 7.05 | 16200 | 37.3 | 6.12 | 20.4 | 3310 | 14 | 15.5 | 30.7
COC(=O)C1=C(C)NC(C)=C(C(=O)OC)C1c1ccccc1[N+](=O)[O-] | 64.3 | > 100 | > 100000 | > 100 | > 100000 | > 100 | > 100 | > 100 | 61.9 | > 100 | 47600 | > 100 | 36000 | > 100 | > 100 | > 100 | – | – | 50 | > 100
CC1CCCc2c(CC3CC(=O)NC(=O)C3)nc(N)nc21 (stereo not given) | – | > 100 | – | > 100 | – | > 100 | – | > 100 | – | > 100 | – | > 100 | – | > 100 | – | > 100 | – | > 100 | – | –
COc1ccc2c(c1)/C(=N/OC(C)=O)c1c-2c(Nc2ccc(/C(C)=N/OC(C)=O)cc2)nc2ccccc12 | 82.1 | > 100 | > 100000 | > 100 | 53000 | > 100 | 35.5 | > 100 | 20.8 | 45.1 | 29200 | 79.7 | > 100000 | > 100 | 83.1 | > 100 | 79400 | > 100 | 72.8 | > 100
CC[C@@]1(O)C(=O)N(CCN(C)C)Cc2c1cc1n(c2=O)Cc2cc3ccccc3nc2-1 | > 67.9 | > 100 | 24600 | > 100 | 14900 | > 100 | 8.35 | > 100 | 58.1 | > 100 | > 43900 | > 100 | 71400 | > 100 | > 100 | > 100 | > 25200 | > 56.1 | 9.41 | > 100
NS(=O)(=O)c1ccc(N=Nc2cc3ccccc3c(C(=O)O)c2O)cc1 | – | > 100 | – | > 100 | – | > 84.7 | – | > 100 | – | > 80.9 | – | > 100 | – | > 70.1 | – | > 67.1 | – | > 100 | – | 99
O=C(c1nc2ccccc2[nH]1)C1C(c2cccc([N+](=O)[O-])c2)C2CC3CCCCC3N2[C@@]12C(=O)Nc1cc(Cl)ccc12 (stereo not given in full) | 2.02 | 6.31 | 1640 | 4.35 | 1950 | 7.11 | 2.37 | 5.89 | 2.08 | 8.87 | 1710 | 5.6 | 1360 | 2.81 | – | – | 1690 | 3.1 | 1.38 | 3.16
CN1CCN(Cc2ccc(NC(=O)c3cncc(C#Cc4cncc5[nH]ncc45)c3)cc2C(F)(F)F)CC1 | 1.46 | 6.27 | 251 | 6.24 | 1090 | 6.77 | 0.488 | 4.29 | 0.171 | 5.34 | 761 | 2.48 | 665 | 1.95 | 0.295 | 1.25 | 1170 | 4.58 | 1.01 | 2.52
CCN(Cc1cccc(C)c1)c1ccc(CO)c(Cl)c1 | 14.6 | 30 | 4120 | 16.2 | 366 | 11.1 | 10.1 | 25.5 | 0.618 | 8.22 | 6200 | 31.2 | 6520 | 21.9 | 5.77 | 21.8 | 9250 | 22 | 6.47 | 20.6
O=[N+]([O-])C1(CO)COC2(OC1)c1ccccc1-c1ccccc12 | – | > 100 | – | > 100 | – | > 95.3 | – | > 100 | – | > 100 | – | 70.1 | – | > 69.1 | – | > 100 | – | > 100 | – | > 100
COc1cc(C2CC(c3cc(Cl)c(C)cc3O)=NN2c2ccc(S(N)(=O)=O)cc2)cc(OC)c1OC (stereo not given) | 3.26 | 43.7 | 1920 | 4.28 | 2770 | 10.3 | 2.11 | 5.32 | 3.47 | > 100 | 2660 | 14.8 | 2900 | 6.02 | 3.53 | 12 | 2020 | 4.18 | 2.19 | 28.9
